Measurements as given in the NIST ThermoML archive (doi:10.1016/j.jct.2015.07.012).
± gives the expanded uncertainty stated by the source.

What was measured:
[1] = refractive index (Na D-line) (dimensionless); settings: 303.15 K; 101.33 kPa; Liquid; Standard Abbe refractometry
[2] = 101.33 kPa, Liquid; for speed of sound: Sing-around technique in a fixed-path interferometer; for mass density: Vibrating tube method
[3] = wn = mass fraction of the nth substance listed; settings: 298.15 K, 100 kPa, Liquid; for speed of sound: Frequency=3 MHz, Sing-around technique in a fixed-path interferometer; for mass density: Vibrating tube method

CCCCCCC(=O)[O-].C[NH2+]C1CCCCC1 [N-methylcyclohexylammonium heptanoate]
Settings | refractive index
[1] | 1.4636 ± 0.0012

[2]
Settings | mass density [kg/m3] | speed of sound [m/s]
293.15 K | 945.8 ± 1.9 | 1478.3 ± 8.6
298.15 K | 942.18 ± 1.8 | 1458.5 ± 8.6
303.15 K | 938.51 ± 1.8 | 1440.2 ± 8.6
308.15 K | 934.81 ± 1.8 | 1422.2 ± 8.6
313.15 K | 931.05 ± 1.8 | 1404.5 ± 8.6
318.15 K | 927.26 ± 1.8 | 1385.1 ± 8.6
323.15 K | 923.44 ± 1.8 | 1368.6 ± 8.6
328.15 K | 919.59 ± 1.8 | 1351.4 ± 8.6
333.15 K | 915.71 ± 1.8 | 1334.1 ± 8.6
338.15 K | 911.8 ± 1.8 | 1316.1 ± 8.6
343.15 K | 907.85 ± 1.8 | 1299.1 ± 8.6

CCCCCC(=O)[O-].C[NH2+]C1CCCCC1 [N-methylcyclohexylammonium hexanoate]
Settings | refractive index
[1] | 1.4631 ± 0.0012

[2]
Settings | mass density [kg/m3] | speed of sound [m/s]
293.15 K | 955.14 ± 1.9 | 1484 ± 8.6
298.15 K | 951.65 ± 1.9 | 1464.9 ± 8.6
303.15 K | 948.13 ± 1.9 | 1446.4 ± 8.6
308.15 K | 944.56 ± 1.9 | 1428.2 ± 8.6
313.15 K | 940.96 ± 1.8 | 1410.3 ± 8.6
318.15 K | 937.32 ± 1.8 | 1392.6 ± 8.6
323.15 K | 933.66 ± 1.8 | 1375 ± 8.6
328.15 K | 929.96 ± 1.8 | 1357.5 ± 8.6
333.15 K | 926.23 ± 1.8 | 1340 ± 8.6
338.15 K | 922.46 ± 1.8 | 1322.6 ± 8.6
343.15 K | 918.66 ± 1.8 | 1305.2 ± 8.6

CCCCCCCC(=O)[O-].C[NH2+]C1CCCCC1 [N-methylcyclohexylammonium octanoate]
Settings | refractive index
[1] | 1.464 ± 0.0012

[2]
Settings | mass density [kg/m3] | speed of sound [m/s]
293.15 K | 938.59 ± 1.8 | 1471.6 ± 8.6
298.15 K | 935.17 ± 1.8 | 1453.1 ± 8.6
303.15 K | 931.73 ± 1.8 | 1435 ± 8.6
308.15 K | 928.25 ± 1.8 | 1417.2 ± 8.6
313.15 K | 924.74 ± 1.8 | 1399.5 ± 8.6
318.15 K | 921.21 ± 1.8 | 1381 ± 8.6
323.15 K | 917.65 ± 1.8 | 1363.7 ± 8.6
328.15 K | 914.07 ± 1.8 | 1346.5 ± 8.6
333.15 K | 910.46 ± 1.8 | 1329.4 ± 8.6
338.15 K | 906.82 ± 1.8 | 1312.4 ± 8.6
343.15 K | 903.15 ± 1.8 | 1295.4 ± 8.6

CCCCCCCC(=O)[O-].C[NH2+]C1CCCCC1 [N-methylcyclohexylammonium octanoate] + O
[3]
Settings | mass density [kg/m3] | speed of sound [m/s]
w2 = 0.002193 | 935.17 ± 1.8 | 1453.1 ± 8.6
w2 = 0.004032 | 935.76 ± 1.8 | 1457.6 ± 8.6
w2 = 0.005228 | 936.14 ± 1.8 | 1459.7 ± 8.6
w2 = 0.007628 | 937.01 ± 1.8 | 1462.3 ± 8.6
w2 = 0.009495 | 937.53 ± 1.8 | 1463.2 ± 8.6

CCCCC(=O)[O-].C[NH2+]C1CCCCC1 [N-methylcyclohexylammonium pentanoate]
Settings | refractive index
[1] | 1.4627 ± 0.0012

[2]
Settings | mass density [kg/m3] | speed of sound [m/s]
293.15 K | 965.76 ± 1.9 | 1495.3 ± 8.6
298.15 K | 962.21 ± 1.9 | 1475.7 ± 8.6
303.15 K | 958.63 ± 1.9 | 1456.7 ± 8.6
308.15 K | 955.01 ± 1.9 | 1438.2 ± 8.6
313.15 K | 951.34 ± 1.9 | 1420.1 ± 8.6
318.15 K | 947.63 ± 1.9 | 1402.1 ± 8.6
323.15 K | 943.88 ± 1.9 | 1384.2 ± 8.6
328.15 K | 940.1 ± 1.8 | 1366.5 ± 8.6
333.15 K | 936.29 ± 1.8 | 1348.8 ± 8.6
338.15 K | 932.44 ± 1.8 | 1331.1 ± 8.6
343.15 K | 928.54 ± 1.8 | 1313.5 ± 8.6
